Laboratory results reported in ChEMBL document CHEMBL5625228, “Design, synthesis, and bioactivity evaluation of novel amide/sulfonamide derivatives as potential anti-inflammatory agents against acute lung injury and ulcerative colitis” (Eur J Med Chem, 2023).
Calls of active or inactive are those of the source. The calls are words filed in the database; no cut-off is given here.

Legend:
J774.A1 [1] = assay: Antiinflammatory activity against mouse J774.A1 cells assessed as inhibition of LPS-induced TNF-alpha production pretreated with compound for 30 mins followed by LPS induction and measured after 24 hrs by ELISA analysis; type: functional; conditions: for inhibition (INH): time 1470 min, 24.5 h; on INH: test concentration or dose not given here
J774.A1 [2] = assay: Antiinflammatory activity against mouse J774.A1 cells assessed as inhibition of LPS-induced IL-6 release preincubated with compound for 30 mins followed by LPS-induction and measured after 24 hrs by ELISA analysis; type: functional, cell-based
J774.A1 [3] = assay: Antiinflammatory activity against mouse J774.A1 cells assessed as inhibition of LPS-induced TNF-alpha release preincubated with compound for 30 mins followed by LPS-induction and measured after 24 hrs by ELISA analysis; type: functional, cell-based
J774.A1 [4] = assay: Antiinflammatory activity against mouse J774.A1 cells assessed as inhibition of LPS-induced IL-6 production pretreated with compound for 30 mins followed by LPS induction and measured after 24 hrs by ELISA analysis; type: functional; conditions: for inhibition (INH): time 1470 min, 24.5 h; on INH: test concentration or dose not given here
J774.A1 [5] = assay: Antiinflammatory activity against LPS-induced mouse J774.A1 cells assessed as effect on IL-6 mRNA level preincubated with compound for 30 mins followed by LPS-induction and measured after 6 hrs by qPCR analysis; type: functional, cell-based; conditions: time 390.0 min
J774.A1 [6] = assay: Antiinflammatory activity against LPS-induced mouse J774.A1 cells assessed as downregulation of TNF-alpha mRNA level preincubated with compound for 30 mins followed by LPS-induction and measured after 6 hrs by qPCR analysis; type: functional, cell-based; conditions: time 390.0 min
J774.A1 [7] = assay: Antiinflammatory activity against LPS-induced mouse J774.A1 cells assessed as downregulation of IL-6 mRNA level preincubated with compound for 30 mins followed by LPS-induction and measured after 6 hrs by qPCR analysis; type: functional, cell-based; conditions: time 390.0 min

Row | Compound | inhibition (INH) (J774.A1 [1]) [%] | inhibition (INH) (J774.A1 [4]) [%] | other results
1 | O=[N+]([O-])c1cc(S(=O)(=O)NCc2ccccn2)ccc1N1CCN(Cc2ccccc2)CC1 | 50.22 | 69.3 | IC50 (J774.A1 [2]): 4.94 µM; IC50 (J774.A1 [3]): 10.1 µM; Activity (J774.A1 [5]): inactive
2 | O=[N+]([O-])c1cccc(CN2CCN(c3ccc(S(=O)(=O)NCc4ccccn4)cc3[N+](=O)[O-])CC2)c1 | 43.51 | 71.33 | IC50 (J774.A1 [2]): 1.38 µM; IC50 (J774.A1 [3]): 3.99 µM; Activity (J774.A1 [5]): inactive
3 | O=[N+]([O-])c1ccc(CN2CCN(c3ccc(S(=O)(=O)NCc4ccccn4)cc3[N+](=O)[O-])CC2)cc1 | 42.19 | 69.93 | IC50 (J774.A1 [2]): 1.32 µM; IC50 (J774.A1 [3]): 8.59 µM; Activity (J774.A1 [6]): Active; Activity (J774.A1 [7]): Active
4 | COc1cc(-c2csc(NC(=O)CCN3CCN(Cc4cccc([N+](=O)[O-])c4)CC3)n2)ccc1O | 41.39 | 78.47 | 
5 | COc1ccc(NC(=O)CN2CCN(Cc3cccc([N+](=O)[O-])c3)CC2)cn1 | 41.2 | 20.88 | 
6 | O=C(CN1CCN(Cc2cccc([N+](=O)[O-])c2)CC1)NCc1ccccn1 | 39.82 | 21.88 | 
7 | COc1ccc(NS(=O)(=O)CCN2CCN(c3ncccn3)CC2)cn1 | 37.77 | 42 | 
8 | O=[N+]([O-])c1ccc(CN2CCN(CCS(=O)(=O)NCc3ccccn3)CC2)cc1 | 41.37 | 49.16 | 
9 | O=[N+]([O-])c1cccc(CN2CCN(CCS(=O)(=O)NCc3ccccn3)CC2)c1 | 38.96 | 41.05 | 
10 | O=C(CN1CCN(c2ccc([N+](=O)[O-])cc2)CC1)Nc1cccc2ccccc12 | 17.43 | 17.67 | 
11 | O=C(CN1CCN(c2ccc([N+](=O)[O-])cc2)CC1)Nc1ccccn1 | 41.4 | 54.4 | 
12 | O=C(CCN1CCN(c2ccc([N+](=O)[O-])cc2)CC1)Nc1cccc2ccccc12 |  |  | inhibition (J774.A1 [1]; time 1470.0 min): inactive; inhibition (J774.A1 [4]; time 1470.0 min): inactive
13 | O=[N+]([O-])c1cccc(CN2CCN(CCS(=O)(=O)Nc3ccc4ncccc4c3)CC2)c1 | 23.97 | 54.36 | 
14 | COc1ccc(NC(=O)CN2CCN(Cc3ccccc3)CC2)cn1 | 34.1 | 9.69 | 
